Laboratory results published in patent US7919680B2, “Nucleic acids encoding anthelmintic agents and plants made therefrom” (Divergence, Inc., priority 2004, dated 2011).

How the values were obtained:
L4 and adult C. elegans = settings: Stadler and coworkers; cited from earlier work
Caenorhabditis elegans = settings: 100 μg/mL over 24 hours; Momin & Nair (2002); cited from earlier work
Panagrellus redivivus = settings: 100 μg/mL over 24 hours; Momin & Nair (2002); cited from earlier work
C. elegans [1] = assay: Nematicidal activity of methyl ester, salt and free fatty acid emulsions vs. C. elegans N2s (Table 3); assay type: in vivo, Caenorhabditis elegans
Text: Nematicidal Activity of Single Fatty Acid Methyl Ester, Salt and Free Fatty Acid Emulsions Against Caenorhabditis elegans […] and Dauers

C. elegans dauers = assay: Nematicidal activity of methyl ester, salt and free fatty acid emulsions vs. C. elegans dauers (Table 4); assay type: in vivo, Caenorhabditis elegans
M. incognita [2] = assay: Nematicidal activity of fatty acid methyl ester emulsions against root knot nematode J2 larvae (Table 5); assay type: in vivo; settings: 0.1% emulsion; 48 hours incubation, counted about 24 hours after transfer to plates
Procedure: (§1) M. incognita and M. javanica were prepared from tomato roots. The roots were bleached and the debris was separated from the J2 larvae and eggs by filtration followed by sucrose density gradient centrifugation. Eggs were hatched over 4 days at 15° C. and the J2 larvae were collected by passage though a filter, followed by centrifugation.
(§2) Nematodes and emulsions were incubated with shaking at room temperature for 48 hours. The contents of each well were transferred to a small spot on individual NGM plates lacking bacteria. About 24 hours after the transfer to plates, worms on and off the inoculation spot were counted as not viable or viable, respectively. Worms were considered viable if they had crawled away from the inoculation spot, or if they were moving. Worms were considered non-viable if they remained at the inoculation spot.

M. javanica [3] = assay: as above; assay type: in vivo; settings: 0.1% emulsion; 48 hours incubation, counted about 24 hours after transfer to plates
Procedure: as §1, §2

tomato seedlings = assay: Phytotoxicity evaluation of fatty acid methyl esters on tomato seedlings; assay type: in vivo; settings: 250 μl of 1% emulsion at stem-media interface of two-week seedlings
Procedure: Sterilized tomato seeds were germinated in magenta jars containing Gamborg's agar media. After two weeks of growth, seedlings were treated with 250 μl of 1% fatty acid methyl ester emulsion (nonanoic acid, ricinoleic acid, ricinelaidic acid, oleic acid, or a control emulsion lacking any fatty acid), applied directly to the stem-media interface. Tomato seedlings were scored at various times after application of emulsions.

C. elegans [4] = assay: Nematicidal activity of fatty acid methyl ester emulsions, nematode spectrum (Table 6); assay type: in vivo, Caenorhabditis elegans; settings: C. elegans mixed stage
Procedure: (§3) Briefly, the indicated fatty acid emulsions were added to nematodes in wells of a 24-well plate and rapidly mixed by swirling. […] Results shown are mean % values obtained from multiple independent experiments
(§4) The Caenorhabditis elegans were mixed stage populations. Similar effects were seen on several other free-living nematode species. The Parastrongyloides trichosuri (parasite of Australian bushtail possum) were dauer-like infective 3rd stage larva. Similar effects are also seen against free-living stages. The Meloidogyne incognita and Meloidogyne javanica (root knot nematode) were 2nd stage juveniles (dauer-like infective stage). The Heterodera glycines (soybean cyst nematode) were 2nd stage juveniles (dauer-like infective stage). Finally, the Pratylenchus scribneri (corn lesion nematode) were mixed stage populations.

P. trichosuri = assay: as above; assay type: in vivo, Parastrongyloides trichosuri; settings: P. trichosuri infective 3rd stage larva
Procedure: as §3, §4

M. incognita [5] = assay: as above; assay type: in vivo, Meloidogyne incognita; settings: M. incognita 2nd stage juveniles, head 24 hr, b171 48 hours
Procedure: as §3, §4

M. javanica [6] = assay: as above; assay type: in vivo, Meloidogyne javanica; settings: M. javanica 2nd stage juveniles, head 24 hr, b171 48 hours
Procedure: as §3, §4

H. glycines = assay: as above; assay type: in vivo, Heterodera glycines; settings: H. glycines 2nd stage juveniles, head 24 hr, b171 48 hours
Procedure: as §3, §4

P. scribneri = assay: as above; assay type: in vivo, Pratylenchus scribneri; settings: P. scribneri mixed stage
Procedure: as §3, §4

[7] = test system: wide spectrum of divergent nematode genera; assay: Summary of Table 6: free-living, animal parasitic and plant parasitic nematodes; assay type: in vivo; settings: concentrations of 0.1% and 0.01%
Procedure: as §3

[8] = test system: everted hamster jejunal and ileal segments; settings: Gaginella et al. (1975); cited from earlier work
C. elegans [9] = assay: Nematicidal activity of fatty acid methyl ester emulsions against C. elegans (Table 2)
[10] = test system: isolated intestinal epithelial cells; settings: Gaginella et al. (1977); cited from earlier work

CCCCCCCC/C=C\CCCCCCCC(=O)O [oleic acid]
LD50 (L4 and adult C. elegans): 25 µg/mL | LD90 (L4 and adult C. elegans): 100 µg/mL | nematicidal activity (Caenorhabditis elegans): not nematicidal | nematicidal activity (Panagrellus redivivus): not nematicidal

CCCCCC[C@@H](O)C/C=C\CCCCCCCC(=O)OC [Ricinoleic Acid (C18-methyl ester), ricinoleic acid methyl ester]
worm death (C. elegans [1]; 0.001% emulsion): 20% | worm death (C. elegans [1]; 0.01% emulsion): 40% | worm death (C. elegans [1]; 0.1% emulsion): 90% | worm death (C. elegans dauers; 0.01% emulsion): 30% | worm death (C. elegans dauers; 0.1% emulsion): 70% | M. incognita (% not viable) (M. incognita [2]): 95% | M. javanica (% not viable) (M. javanica [3]): 60% | phytotoxic effects on tomato seedlings (tomato seedlings): low phytotoxicity | % Worm Death (24 hr) (C. elegans [4]; 0.001% solution): 30% | % Worm Death (24 hr) (C. elegans [4]; 0.01% solution): 50% | % Worm Death (24 hr) (C. elegans [4]; 0.1% solution): 90% | % Worm Death (24 hr) (P. trichosuri; 0.01% solution): ~60% | % Worm Death (24 hr) (P. trichosuri; 0.1% solution): ~50% | % Worm Death (24 hr) (M. incognita [5]; 0.01% solution): 83% | % Worm Death (24 hr) (M. incognita [5]; 0.1% solution): 95% | % Worm Death (24 hr) (M. javanica [6]; 0.01% solution): 5% | % Worm Death (24 hr) (M. javanica [6]; 0.1% solution): 60% | % Worm Death (24 hr) (H. glycines; 0.001% solution): ~40% | % Worm Death (24 hr) (H. glycines; 0.01% solution): ~60% | % Worm Death (24 hr) (H. glycines; 0.1% solution): ~60% | % Worm Death (24 hr) (P. scribneri; 0.01% solution): <20% | % Worm Death (24 hr) (P. scribneri; 0.1% solution): <20% | nematicidal activity [7]: strongly nematicidal | effect on water and electrolyte absorption [8]: ineffective | Percentage of Worm Death 1 hr (C. elegans [9]; 0.003% emulsion): 40% | Percentage of Worm Death 6 hr (C. elegans [9]; 0.003% emulsion): 40% | Percentage of Worm Death 24 hr (C. elegans [9]; 0.003% emulsion): 40% | Percentage of Worm Death 1 hr (C. elegans [9]; 0.1% emulsion): 80% | Percentage of Worm Death 6 hr (C. elegans [9]; 0.1% emulsion): 80% | Percentage of Worm Death 24 hr (C. elegans [9]; 0.1% emulsion): 90% | nematicidal activity (C. elegans [9]; concentration of 0.1%): strongly nematicidal | time before strong killing effects are apparent (C. elegans [9]; emulsion, Table 2): up to 30 minutes

CCCCCC[C@@H](O)C/C=C\CCCCCCCC(=O)O [R free acid, ricinoleic acid]
worm death (C. elegans [1]; 0.001% emulsion): <5% | worm death (C. elegans [1]; 0.01% emulsion): 50% | worm death (C. elegans [1]; 0.1% emulsion): 95% | worm death (C. elegans dauers; 0.01% emulsion): 75% | worm death (C. elegans dauers; 0.1% emulsion): 90% | effect on water and electrolyte absorption [8]: inhibitory effect | cytotoxicity [10]: cytotoxic
